Assay results taken from ChEMBL document CHEMBL1201862, “PubChem BioAssay data set” (2004).
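Growth conditions: 96-well plates. Treatment: test compound, 48 hours, 5 concentrations. Analysis: linear interpolation between bracketing concentrations; unreached endpoints set to highest concentration. Here, GI50 denotes the concentration required for 50% inhibition of growth.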 Active and inactive are the calls of the source. Rule as the data show it: active = GI50 up to about 1.1 µM and inactive = higher.

Columns and labels:
Experiment in all cases: DTP human tumour cell line panel, 48 h
[1] = system: MDA-MB-435
[2] = system: HCT-116
[3] = system: UACC-257
[4] = system: A549
[5] = system: OVCAR-3
[6] = system: IGROV-1
[7] = system: NCI-H522
[8] = system: SK-MEL-5
[9] = system: UACC-62
[10] = system: BT-549
[11] = system: LOX IMVI
[12] = system: EKVX
[13] = system: SW-620
[14] = system: SF-295
[15] = system: HOP-62
[16] = system: 786-0
[17] = system: CCRF-CEM
[18] = system: COLO 205
[19] = system: RPMI-8226
[20] = system: DU-145
[21] = system: SK-OV-3
[22] = system: PC-3
[23] = system: A498
[24] = system: OVCAR-5
[25] = system: TK-10
[26] = system: OVCAR-4
[27] = system: K562
[28] = system: SK-MEL-2
[29] = system: SNB-19
[30] = system: M14
[31] = system: HCC 2998
[32] = system: HL-60
[33] = system: HCT-15
[34] = system: HOP-92
[35] = system: MOLT-4
[36] = system: U-251
[37] = system: OVCAR-8
[38] = system: SNB-75
[39] = system: ACHN
[40] = system: UO-31
[41] = system: SF-268
[42] = system: RXF 393
[43] = system: SF-539
[44] = system: NCI/ADR-RES
[45] = system: KM12
[46] = system: NCI-H226
[47] = system: CAKI-1
[48] = system: NCI-H23
[49] = system: SN12C
[50] = system: NCI-H460
[51] = system: MDA-MB-231
[52] = system: SK-MEL-28
[53] = system: SR
[54] = system: Hs-578T
[55] = system: HT-29
[56] = system: MCF7

COc1cc2c[n+](C)c3c4cc(OC)c(OC)cc4ccc3c2cc1OC
GI50 [1]: > 85.7 µM (inactive)
GI50 [2]: 68.5 µM (inactive)
GI50 [3]: 74.1 µM (inactive)
GI50 [4]: 58.7 µM (inactive)
GI50 [5]: 29.3 µM (inactive)
GI50 [6]: 23 µM (inactive)
GI50 [7]: 7.11 µM (inactive)
GI50 [8]: 32 µM (inactive)
GI50 [9]: > 82.8 µM (inactive)
GI50 [10]: 20.4 µM (inactive)
GI50 [11]: 54 µM (inactive)
GI50 [12]: > 63 µM (inactive)
GI50 [13]: > 66.1 µM (inactive)
GI50 [14]: 69 µM (inactive)
GI50 [15]: 97.7 µM (inactive)
GI50 [16]: > 58.5 µM (inactive)
GI50 [17]: 18.8 µM (inactive)
GI50 [18]: 11.8 µM (inactive)
GI50 [19]: 57.1 µM (inactive)
GI50 [20]: 25 µM (inactive)
GI50 [21]: 88.9 µM (inactive)
GI50 [22]: 74.1 µM (inactive)
GI50 [23]: > 100 µM (inactive)
GI50 [24]: > 100 µM (inactive)
GI50 [25]: > 100 µM (inactive)
GI50 [26]: > 38.5 µM (inactive)
GI50 [27]: 16.6 µM (inactive)

CN(C)CCCn1c(-c2cc(C(C)(C)C)c(O)c(C(C)(C)C)c2)cs/c1=N\c1ccccc1
GI50 [1]: 2.34 µM (inactive)
GI50 [28]: 3.06 µM (inactive)
GI50 [3]: 1.47 µM (inactive)
GI50 [4]: 1.77 µM (inactive)
GI50 [5]: 1.61 µM (inactive)
GI50 [29]: 2.14 µM (inactive)
GI50 [30]: 1.72 µM (inactive)
GI50 [31]: 1.85 µM (inactive)
GI50 [32]: 0.1 µM (active)
GI50 [33]: 3.24 µM
GI50 [9]: 2.3 µM (inactive)
GI50 [34]: 2.26 µM (inactive)
GI50 [35]: 0.131 µM (active)
GI50 [10]: 3.13 µM (inactive)
GI50 [36]: 2.93 µM (inactive)
GI50 [37]: 1.97 µM (inactive)
GI50 [38]: 3.88 µM (inactive)
GI50 [39]: 2.98 µM (inactive)
GI50 [40]: 1.97 µM (inactive)
GI50 [41]: 1.85 µM (inactive)
GI50 [42]: 2.17 µM (inactive)
GI50 [12]: 2.16 µM (inactive)
GI50 [13]: 76.6 µM (inactive)
GI50 [14]: 1.79 µM (inactive)
GI50 [43]: 1.75 µM (inactive)
GI50 [15]: 1.89 µM (inactive)
GI50 [44]: 1.79 µM (inactive)
GI50 [45]: 1.91 µM (inactive)
GI50 [19]: 1.4 µM (inactive)
GI50 [46]: 1.98 µM (inactive)
GI50 [47]: 17.8 µM (inactive)
GI50 [48]: 1.68 µM (inactive)
GI50 [49]: 2.08 µM (inactive)
GI50 [21]: 1.96 µM (inactive)
GI50 [22]: 1.87 µM (inactive)
GI50 [50]: 2.35 µM (inactive)
GI50 [51]: 2.34 µM (inactive)
GI50 [23]: 1.94 µM (inactive)
GI50 [24]: 2.23 µM (inactive)
GI50 [52]: 2.39 µM (inactive)
GI50 [25]: 1.95 µM (inactive)
GI50 [26]: 2.09 µM (inactive)

O=C(NCCN1CCCCC1)c1cccc(I)c1
GI50 [53]: > 100 µM (inactive)
GI50 [54]: > 100 µM (inactive)
GI50 [4]: > 100 µM (inactive)
GI50 [5]: > 100 µM (inactive)
GI50 [29]: > 100 µM (inactive)
GI50 [30]: 72.9 µM (inactive)
GI50 [31]: > 100 µM (inactive)
GI50 [6]: > 100 µM (inactive)
GI50 [32]: > 100 µM (inactive)
GI50 [8]: > 100 µM (inactive)
GI50 [33]: > 100 µM
GI50 [9]: > 100 µM (inactive)
GI50 [34]: 94.2 µM (inactive)
GI50 [35]: > 100 µM (inactive)
GI50 [10]: > 100 µM (inactive)
GI50 [36]: > 100 µM (inactive)
GI50 [11]: > 100 µM (inactive)
GI50 [37]: > 100 µM (inactive)
GI50 [38]: 55.2 µM (inactive)
GI50 [39]: > 100 µM (inactive)
GI50 [40]: > 100 µM (inactive)
GI50 [41]: > 100 µM (inactive)
GI50 [42]: > 100 µM (inactive)
GI50 [12]: > 100 µM (inactive)
GI50 [13]: > 100 µM (inactive)
GI50 [43]: > 100 µM (inactive)
GI50 [16]: > 100 µM (inactive)
GI50 [44]: > 100 µM (inactive)
GI50 [45]: > 100 µM (inactive)
GI50 [17]: > 100 µM (inactive)
GI50 [19]: > 100 µM (inactive)
GI50 [46]: > 100 µM (inactive)
GI50 [47]: > 100 µM (inactive)
GI50 [48]: > 100 µM (inactive)
GI50 [49]: > 100 µM (inactive)
GI50 [21]: > 100 µM (inactive)
GI50 [22]: > 100 µM (inactive)
GI50 [50]: > 100 µM (inactive)
GI50 [55]: 49.7 µM (inactive)
GI50 [23]: > 100 µM (inactive)
GI50 [24]: > 100 µM (inactive)
GI50 [52]: > 100 µM (inactive)
GI50 [25]: > 100 µM (inactive)
GI50 [26]: > 100 µM (inactive)
GI50 [27]: > 100 µM (inactive)
GI50 [56]: > 100 µM (inactive)
